Laboratory results taken from patent US10590075B2, “Cyanopyrrolidine derivatives as inhibitors for DUBs” (Mission Therapeutics Limited, priority 2015, dated 2020).

Biological target: Cezanne 1 (Homo sapiens (Human), UniProt Q6GQQ9)
Assay: Cezanne 1 biochemical IC50 assay
Settings: FLAG-Cezanne 1 purified from HEK293T cells; fluorescence polarisation, TAMRA labelled peptide linked to ubiquitin; 30 min preincubation, 2 hr read; read-out: IC50 range
Procedure: The Cezanne 1 construct was PCR amplified and cloned into a pFLAG-CMV-6c vector (Sigma-Aldrich) with an N-terminal FLAG tag. HEK293T cells were transfected with FLAG-Cezanne 1 using TransIT-LT1 transfection reagent (Mirus) according to the manufacturer's instructions. Cells were harvested 48 hours after transfection. Cells were washed once with PBS and scraped in lysis buffer (50 mM Tris, pH 7.5, 150 mM NaCl, 3 mM EDTA, 0.5% NP40, 10% glycerol, 5 mM beta-mercaptoethanol, protease inhibitors (complete mini, Roche) and phosphatase inhibitors (PhosSTOP mini, Roche). Lysates were incubated for 30 min on ice and centrifuged at 4000 rpm for 10 min at 4° C. Soluble supernatant was added to FLAG affinity resin (EZview Red ANTI-FLAG M2 affinity gel, Sigma-Aldrich) equilibrated in low salt buffer (20 mM Tris, pH 7.5, 150 mM NaCl, 0.5 mM EDTA, 5 mM beta-mercaptoethanol) and incubated at 4° C. for 3 hours rotating. The resin was spun at 2000 rpm for 2 min and the supernatant was removed. The resin was washed two times with low salt buffer and one time with high salt buffer (20 mM Tris, pH 7.5, 500 mM NaCl, 0.5 mM EDTA, 5 mM beta-mercaptoethanol, protease inhibitors (complete mini, Roche) and phosphatase inhibitors (PhosSTOP mini, Roche). To elute the bound Cezanne 1, elution buffer (10 mM Tris, pH 7.5, 150 mM NaCl, 0.5 mM EDTA, 10% glycerol, 0.5% NP40, 5 mM beta-mercaptoethanol, 0.15 mg/ml 3× FLAG peptide (Sigma-Aldrich)) was added to the resin and incubated at 4° C. for 2.5 hours while rotating. The resin was centrifuged at 4000 rpm for 30 seconds, and the supernatant containing purified FLAG-Cezanne 1 was removed and stored at −80° C.
Dilution plates were prepared at 21 times the final concentration (2100 μM for a final concentration of 100 μM) in 50% DMSO in a 96-well polypropylene V-bottom plate (Greiner #651201). A typical 8-point dilution series to be 100, 30, 10, 3, 1, 0.3, 0.1, […]. Reactions were performed in duplicate in black 384 well plates (small volume, Greiner 784076) in a final reaction volume of 21 μl. Either 1 μl of 50% DMSO or diluted compound was added to the plate. Cezanne 1 was diluted in reaction buffer (40 mM Tris, pH 7.5, 0.005% Tween 20, 0.5 mg/ml BSA, 5 mM—beta-mercaptoethanol) to the equivalent of 0.005 μl/well and 10 μl of diluted Cezanne 1 was added to the compound. Enzyme and compound were incubated for 30 min at room temp. Reactions were initiated by the addition of 50 nM of TAMRA labelled peptide linked to ubiquitin via an iso-peptide bond as fluorescence polarisation substrate. Reactions were read immediately after addition of substrate and following a 2 hr incubation at room temperature. Readings were performed on a Pherastar Plus (BMG Labtech). λ Excitation 540 nm; λ Emission 590 nm.

Cezanne 1, sequence (Q6GQQ9 whole entry): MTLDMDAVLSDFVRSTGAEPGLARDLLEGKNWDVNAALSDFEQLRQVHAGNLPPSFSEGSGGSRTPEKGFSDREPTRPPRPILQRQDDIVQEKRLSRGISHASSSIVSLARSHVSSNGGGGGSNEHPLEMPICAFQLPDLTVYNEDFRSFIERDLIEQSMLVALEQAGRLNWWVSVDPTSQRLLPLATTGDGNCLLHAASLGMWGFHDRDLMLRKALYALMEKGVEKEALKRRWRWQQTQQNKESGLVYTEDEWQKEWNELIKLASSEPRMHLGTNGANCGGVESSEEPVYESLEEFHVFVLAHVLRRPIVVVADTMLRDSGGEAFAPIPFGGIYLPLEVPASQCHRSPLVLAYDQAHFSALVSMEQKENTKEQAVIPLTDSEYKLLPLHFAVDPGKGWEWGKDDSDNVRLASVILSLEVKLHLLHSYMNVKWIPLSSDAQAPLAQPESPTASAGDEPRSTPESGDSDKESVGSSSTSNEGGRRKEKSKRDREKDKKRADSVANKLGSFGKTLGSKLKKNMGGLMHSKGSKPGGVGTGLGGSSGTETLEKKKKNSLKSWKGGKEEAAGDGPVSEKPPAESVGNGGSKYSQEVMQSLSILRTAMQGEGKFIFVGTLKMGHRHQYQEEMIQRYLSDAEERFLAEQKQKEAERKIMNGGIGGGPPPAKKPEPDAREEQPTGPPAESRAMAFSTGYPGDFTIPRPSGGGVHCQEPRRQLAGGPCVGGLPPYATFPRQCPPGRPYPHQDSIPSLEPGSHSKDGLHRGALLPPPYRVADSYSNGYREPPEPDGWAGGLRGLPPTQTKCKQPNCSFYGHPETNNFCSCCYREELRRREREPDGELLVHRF

IC50 [nM] | SMILES
1000 to 10000 | N#CN1CCC(F)(C(=O)Nc2ccc(Cl)c(C(F)(F)F)c2)C1 (stereo not shown) [Example 1, N-(4-chloro-3-(trifluoromethyl)phenyl)-1-cyano-3-fluoropyrrolidine-3-carboxamide]
1000 to 10000 | N#CN1CCC(F)(C(=O)Nc2nc(-c3ccccc3)cs2)C1 (stereo not shown) [Example 2, 1-cyano-3-fluoro-N-(4-phenylthiazol-2-yl)pyrrolidine-3-carboxamide]
100 to 1000 | N#CN1CCC(F)(C(=O)Nc2ccc3ncsc3c2)C1 (stereo not shown) [Example 3, N-(benzo[d]thiazol-6-yl)-1-cyano-3-fluoropyrrolidine-3-carboxamide]
1000 to 10000 | N#CN1CCC(F)(C(=O)Nc2cnc3ccccc3c2)C1 (stereo not shown) [Example 4, 1-cyano-3-fluoro-N-(quinolin-3-yl)pyrrolidine-3-carboxamide]
1000 to 10000 | N#CN1CCC(F)(C(=O)Nc2ccc3ncccc3c2)C1 (stereo not shown) [Example 5, 1-cyano-3-fluoro-N-(quinolin-6-yl)pyrrolidine-3-carboxamide]
1000 to 10000 | Cc1nc(-c2cccc(NC(=O)C3(F)CCN(C#N)C3)c2)cs1 (stereo not shown) [Example 6, 1-cyano-3-fluoro-N-(3-(2-methylthiazol-4-yl)phenyl)pyrrolidine-3-carboxamide]
1000 to 10000 | N#CN1CCC(F)(C(=O)Nc2cccc(Oc3ccccc3)c2)C1 (stereo not shown) [Example 7, 1-cyano-3-fluoro-N-(3-phenoxyphenyl)pyrrolidine-3-carboxamide]
100 to 1000 | N#CN1CCC(F)(C(=O)Nc2ncc(-c3ccccc3)s2)C1 (stereo not shown) [Example 8, 1-cyano-3-fluoro-N-(5-phenylthiazol-2-yl) pyrrolidine-3-carboxamide]
100 to 1000 | N#CN1CC[C@](F)(C(=O)Nc2ncc(-c3ccccc3)s2)C1 [Example 9, (R)-1-cyano-3-fluoro-N-(5-phenylthiazol-2-yl) pyrrolidine-3-carboxamide]
100 to 1000 | N#CN1CCC(F)(C(=O)Nc2cc(-c3ccccc3)on2)C1 (stereo not shown) [Example 10, 1-cyano-3-fluoro-N-(5-phenylisoxazol-3-yl)pyrrolidine-3-carboxamide]
1000 to 10000 | N#CN1CCC(F)(C(=O)Nc2cn(-c3ccccc3)cn2)C1 (stereo not shown) [Example 11, 1-cyano-3-fluoro-N-(1-phenyl-1H-imidazol-4-yl)pyrrolidine-3-carboxamide]
1000 to 10000 | N#CN1CC[C@@](F)(C(=O)Nc2cnn(-c3ccccc3)c2)C1 [Example 12, (S)-1-cyano-3-fluoro-N-(1-phenyl-1H-pyrazol-4-yl)pyrrolidine-3-carboxamide]
< 100 | N#CN1CC[C@](F)(C(=O)Nc2cnn(-c3ccccc3)c2)C1 [Example 13, (R)-1-cyano-3-fluoro-N-(1-phenyl-1H-pyrazol-4-yl)pyrrolidine-3-carboxamide]
1000 to 10000 | N#Cc1ccc(-n2cnc(NC(=O)[C@@]3(F)CCN(C#N)C3)c2)cc1 [Example 14, (R)-1-cyano-N-(1-(4-cyanophenyl)-1H-imidazol-4-yl)-3-fluoropyrrolidine-3-carboxamide]
1000 to 10000 | N#CN1CC[C@](F)(C(=O)Nc2cnn(Cc3ccccc3)c2)C1 [Example 15, (R)—N-(1-benzyl-1H-pyrazol-4-yl)-1-cyano-3-fluoropyrrolidine-3-carboxamide]
1000 to 10000 | N#CN1CCC(F)(C(=O)Nc2nc3ccc(-c4cn[nH]c4)cc3s2)C1 (stereo not shown) [Example 16, N-(6-(1H-pyrazol-4-yl)benzo[d]thiazol-2-yl)-1-cyano-3-fluoropyrrolidine-3-carboxamide]
1000 to 10000 | N#CN1CCC(F)(C(=O)Nc2nc3ccc(-c4ccccc4)cc3s2)C1 (stereo not shown) [Example 17, 1-cyano-3-fluoro-N-(6-phenylbenzo[d]thiazol-2-yl)pyrrolidine-3-carboxamide]
100 to 1000 | N#CN1CCC(F)(C(=O)Nc2ncc(-c3cccc4[nH]ncc34)s2)C1 (stereo not shown) [Example 18, N-(5-(1H-indazol-4-yl)thiazol-2-yl)-1-cyano-3-fluoropyrrolidine-3-carboxamide]
100 to 1000 | N#CN1CCC(F)(C(=O)Nc2cc(-c3ccccc3)no2)C1 (stereo not shown) [Example 20, 1-cyano-3-fluoro-N-(3-phenylisoxazol-5-yl)pyrrolidine-3-carboxamide]
100 to 1000 | N#CN1CC[C@](F)(C(=O)Nc2cc(-c3ccccc3)no2)C1 [Example 21, (R)-1-cyano-3-fluoro-N-(3-phenylisoxazol-5-yl)pyrrolidine-3-carboxamide]
100 to 1000 | N#CN1CCC(F)(C(=O)Nc2ncc(-c3cccc(C(N)=O)c3)s2)C1 (stereo not shown) [Example 22, N-(5-(3-carbamoylphenyl)thiazol-2-yl)-1-cyano-3-fluoropyrrolidine-3-carboxamide]
100 to 1000 | CNC(=O)c1cccc(-c2cnc(NC(=O)C3(F)CCN(C#N)C3)s2)c1 (stereo not shown) [Example 23, 1-cyano-3-fluoro-N-(5-(3-(methylcarbamoyl)phenyl)thiazol-2-yl)pyrrolidine-3-carboxamide]
100 to 1000 | CNC(=O)c1cccc(-c2cnc(NC(=O)[C@@]3(F)CCN(C#N)C3)s2)c1 [Example 24, (R)-1-cyano-3-fluoro-N-(5-(3-(methylcarbamoyl)phenyl)thiazol-2-yl)pyrrolidine-3-carboxamide]
100 to 1000 | N#CN1CCC(F)(C(=O)Nc2ncc(-c3cccc(-n4ccnc4)c3)s2)C1 (stereo not shown) [Example 25, N-(5-(3-(1H-imidazol-1-yl)phenyl)thiazol-2-yl)-1-cyano-3-fluoropyrrolidine-3-carboxamide]
100 to 1000 | N#CN1CCC(F)(C(=O)Nc2cc(-c3cccc(-n4ccnc4)c3)no2)C1 (stereo not shown) [Example 26, N-(3-(3-(1H-imidazol-1-yl)phenyl)isoxazol-5-yl)-1-cyano-3-fluoropyrrolidine-3-carboxamide]
100 to 1000 | N#CN1CC[C@](F)(C(=O)Nc2cc(-c3cccc(-n4ccnc4)c3)no2)C1 [Example 27, (R)—N-(3-(3-(1H-imidazol-1-yl)phenyl)isoxazol-5-yl)-1-cyano-3-fluoropyrrolidine-3-carboxamide]
100 to 1000 | N#CN1CCC(F)(C(=O)Nc2cn3cc(-c4ccn[nH]4)ccc3n2)C1 (stereo not shown) [Example 28, N-(6-(1H-pyrazol-5-yl)imidazo[1,2-a]pyridin-2-yl)-1-cyano-3-fluoropyrrolidine-3-carboxamide]
1000 to 10000 | CNC(=O)c1cccc(-c2ccc3nc(NC(=O)C4(F)CCN(C#N)C4)sc3c2)c1 (stereo not shown) [Example 29, 1-cyano-3-fluoro-N-(6-(3-(methylcarbamoyl)phenyl)benzo[d]thiazol-2-yl)pyrrolidine-3-carboxamide]
